The values below come from patent US20230219949A1, “INHIBITORS OF (ALPHA-V)(BETA-6) INTEGRIN” (priority 2018, published 2023).

Where “and” joins values, the source holds several entries; their conditions need not be identical. Identical values can stand only once. Bounds are passed on as bounds.

The target of one series is integrin αvβ6 (Homo sapiens, UniProt P06756+P18564). In words: Fluorescence polarization assay for αvβ6 binding (competition with fluorescein-labeled peptide GRGDLGRL). As to conditions: fluorescence polarization assay of Example 12; 10 nM integrin αvβ6, 3 nM labeled peptide; read-out: avb6. (IC50). Here is the method: Fluorescence Polarization (FP) assays were used to measure compound activity through binding competition with the fluorescein-labeled peptide GRGDLGRL. In the assay, 10 nM of integrin αvβ6 was incubated with the test compound in 2 mM manganese chloride, 0.1 mM calcium chloride, 20 mM HEPES buffer at pH 7.3, 150 mM sodium chloride, 0.01% Triton X-100, 2% DMSO, and 3 nM of the fluorescein-labeled peptide. The assays were run in 384-well plates. For both assay versions, the integrin protein was pre-incubated with the test compounds for 15 minutes at 22° C. before the fluorescein-labeled peptide was added. After the fluorescein-labeled peptide was added, the assay was incubated at 22° C. for 1 hour and fluorescence polarization was measured. IC50 values were determined by nonlinear regression, 4-parameter curve fitting (FIG. 1).

The nature of series [1]: MDCK in vitro permeability assay, wild type MDCK cells with no inhibitor (A→B). The class given is in vitro ADME, Canine. As to conditions: dog, no Pgp inhibitor, apical to basolateral. Here is the method:
(§1) Compounds were tested for permeability in an MDCK permeability assay. This assay measures the ability of compounds to cross a layer of Madin-Darby Canine Kidney (MDCK) cells from the apical to basolateral side (A→B). This measurement is predictive of the ability of compounds to be absorbed in the gut following oral dosing, an essential characteristic of an orally administered small molecule integrin inhibitor drug.
(§2) The assay is run in two formats. One uses wild type MDCK cells with no inhibitor. This method works well in determining the passive permeability of compounds with low efflux by P-glyocprotein (Pgp), and was used to assess permeability of a Reference Compound having the chemical formula shown below.
(§3) Cell Culture and Maintenance: • Cell stock cultures (MDCK or MDCK MDR1) are maintained in MEM+10% FBS+1% NEAA, grown in 75 cm^2 tissue culture treated flasks and split (passed) 2 times weekly to maintain desired confluence. • For maintenance passage: trypsinized cells are routinely distributed into new flasks at a standard passage ratio of 1:20.
(§4) Seeding assay plates: MDCK assay plates are seeded with MDCK or MDCK MCR1 cells 3-4 days prior to running the assay. 24-well plates are seeded at a cell density of 0.88×10^5/well in a 400 μL apical chamber volume (2.2×10^5/mL) with a […] volume of growth medium to the 24-well basal chamber. […]

For series [2], the system named is Madin-Darby Canine Kidney (MDCK) cells. The series is described as above. The format is in vitro ADME. As to conditions: no Pgp inhibitor, apical to basolateral. On the procedure:
as §1, §2, §3, §4

Chain of integrin αvβ6 (P06756 31-992 limits assumed): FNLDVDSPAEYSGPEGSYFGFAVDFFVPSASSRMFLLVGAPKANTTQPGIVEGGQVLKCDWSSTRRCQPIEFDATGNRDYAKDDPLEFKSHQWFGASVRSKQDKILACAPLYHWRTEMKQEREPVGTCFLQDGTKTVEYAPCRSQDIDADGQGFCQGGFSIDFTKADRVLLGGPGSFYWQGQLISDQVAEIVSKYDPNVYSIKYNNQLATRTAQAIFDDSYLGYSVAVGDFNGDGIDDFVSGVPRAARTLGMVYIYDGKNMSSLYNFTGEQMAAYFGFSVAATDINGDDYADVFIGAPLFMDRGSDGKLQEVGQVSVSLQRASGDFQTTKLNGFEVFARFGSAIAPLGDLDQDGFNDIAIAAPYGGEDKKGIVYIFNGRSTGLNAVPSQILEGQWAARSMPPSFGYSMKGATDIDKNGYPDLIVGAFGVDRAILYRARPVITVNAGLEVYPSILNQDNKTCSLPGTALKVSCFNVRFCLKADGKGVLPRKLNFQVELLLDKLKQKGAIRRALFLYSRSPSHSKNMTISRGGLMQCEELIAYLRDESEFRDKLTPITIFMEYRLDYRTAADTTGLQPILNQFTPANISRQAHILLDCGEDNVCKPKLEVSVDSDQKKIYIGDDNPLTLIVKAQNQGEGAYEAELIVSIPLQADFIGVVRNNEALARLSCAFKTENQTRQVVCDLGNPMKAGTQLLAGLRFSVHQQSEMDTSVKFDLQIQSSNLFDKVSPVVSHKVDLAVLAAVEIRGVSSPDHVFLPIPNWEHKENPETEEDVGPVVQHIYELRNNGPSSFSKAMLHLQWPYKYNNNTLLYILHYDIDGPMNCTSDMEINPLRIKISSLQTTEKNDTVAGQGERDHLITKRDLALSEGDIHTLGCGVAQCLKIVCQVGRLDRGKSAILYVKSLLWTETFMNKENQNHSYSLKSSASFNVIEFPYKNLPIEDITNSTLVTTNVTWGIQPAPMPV
Chain of integrin αvβ6 (P18564 22-709 limits assumed): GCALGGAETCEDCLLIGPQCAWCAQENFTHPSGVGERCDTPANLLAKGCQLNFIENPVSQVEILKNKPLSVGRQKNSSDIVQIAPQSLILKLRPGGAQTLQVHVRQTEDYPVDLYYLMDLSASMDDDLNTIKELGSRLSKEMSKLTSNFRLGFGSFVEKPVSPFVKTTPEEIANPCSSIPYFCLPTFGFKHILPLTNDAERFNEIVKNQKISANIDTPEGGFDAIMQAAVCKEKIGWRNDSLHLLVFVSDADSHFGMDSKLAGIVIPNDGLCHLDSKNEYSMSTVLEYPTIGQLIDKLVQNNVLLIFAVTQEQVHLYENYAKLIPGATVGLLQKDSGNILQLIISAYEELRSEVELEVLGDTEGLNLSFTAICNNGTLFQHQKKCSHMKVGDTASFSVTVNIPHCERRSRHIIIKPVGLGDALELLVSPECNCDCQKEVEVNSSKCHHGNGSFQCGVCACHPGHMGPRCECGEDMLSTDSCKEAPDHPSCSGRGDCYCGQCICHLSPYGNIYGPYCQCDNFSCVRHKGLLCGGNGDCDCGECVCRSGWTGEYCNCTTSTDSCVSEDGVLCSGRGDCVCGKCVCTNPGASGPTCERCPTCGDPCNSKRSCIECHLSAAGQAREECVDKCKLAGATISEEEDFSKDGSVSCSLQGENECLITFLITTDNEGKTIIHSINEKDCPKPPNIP

The term IC50 denotes the concentration needed to halve the response being measured. One may read the Papp A→B as how fast a substance crosses the layer from the apical side. Low values mean poor permeation, high ones ready permeation. As to `O=C(O)CN1CCC(C(=O)N2CCC(c3ccc4c(n3)NCCC4)CC2)CC1` [Reference Compound], the IC50 on integrin αvβ6 was ~96.5 nM and 96.5 nM. This compound displayed a Papp A→B at 90 min, 5 μM in series [1] below 0.23 ×10⁻⁶ cm/s. In addition, the “MDCK (A−>B)” value in series [2] is on record as “less than 0.23”.
